In data set [1] the target is PI3Kβ (Homo sapiens (Human), UniProt P42338). In words: Enzymatic activity of PI3K isoforms, TR-FRET assay (PI3Kβ). The note with it: 2× Km ATP, geometric mean if more than one value. Format: biochemical. The protocol: Enzymatic activity of the class I PI3K isoforms in the presence of the compounds of Table 1 and Compounds X, Y and Z was measured using a time-resolved fluorescence resonance energy transfer (TR-FRET) assay. The TR-FRET assay was used to monitor formation of the product 3,4,5-inositol triphosphate molecule (PIP3) as it competed with fluorescently labeled PIP3 for binding to the GRP-1 pleckstrin homology domain protein. An increase in […] product results in a decrease in TR-FRET signal as the labeled fluorophore is displaced from the GRP-1 protein binding site.
PI3Kβ, sequence (P42338 whole entry, the tested form may be a part, canonical isoform): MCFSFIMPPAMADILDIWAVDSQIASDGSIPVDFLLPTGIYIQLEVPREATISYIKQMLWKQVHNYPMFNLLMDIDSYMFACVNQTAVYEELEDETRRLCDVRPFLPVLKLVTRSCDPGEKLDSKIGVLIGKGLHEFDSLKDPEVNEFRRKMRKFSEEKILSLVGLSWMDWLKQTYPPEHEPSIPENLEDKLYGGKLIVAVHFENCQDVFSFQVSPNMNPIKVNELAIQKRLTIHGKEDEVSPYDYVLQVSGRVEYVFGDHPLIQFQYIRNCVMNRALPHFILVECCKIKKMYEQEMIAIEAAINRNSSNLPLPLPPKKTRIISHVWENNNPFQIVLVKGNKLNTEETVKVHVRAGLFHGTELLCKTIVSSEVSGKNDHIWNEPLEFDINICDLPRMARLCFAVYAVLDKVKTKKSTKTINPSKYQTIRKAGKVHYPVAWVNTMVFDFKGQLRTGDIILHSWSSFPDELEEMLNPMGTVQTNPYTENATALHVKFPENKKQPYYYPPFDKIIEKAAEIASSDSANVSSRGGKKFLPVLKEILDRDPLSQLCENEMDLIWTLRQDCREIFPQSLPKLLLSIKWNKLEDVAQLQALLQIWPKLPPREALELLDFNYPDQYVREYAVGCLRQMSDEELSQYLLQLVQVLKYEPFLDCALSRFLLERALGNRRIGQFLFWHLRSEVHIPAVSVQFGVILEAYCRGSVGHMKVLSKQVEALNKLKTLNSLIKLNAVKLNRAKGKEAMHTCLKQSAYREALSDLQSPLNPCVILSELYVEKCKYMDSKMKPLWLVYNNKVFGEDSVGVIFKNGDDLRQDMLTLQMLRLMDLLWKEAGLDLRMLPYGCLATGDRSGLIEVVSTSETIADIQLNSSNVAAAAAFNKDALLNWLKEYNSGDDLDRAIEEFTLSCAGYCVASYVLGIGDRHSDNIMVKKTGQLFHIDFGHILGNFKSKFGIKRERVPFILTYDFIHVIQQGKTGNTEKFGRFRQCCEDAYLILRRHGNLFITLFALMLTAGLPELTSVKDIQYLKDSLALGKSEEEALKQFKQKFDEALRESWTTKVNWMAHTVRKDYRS
PI3Kβ, sequence (P27986 whole entry partner, the tested form may be a part, canonical isoform): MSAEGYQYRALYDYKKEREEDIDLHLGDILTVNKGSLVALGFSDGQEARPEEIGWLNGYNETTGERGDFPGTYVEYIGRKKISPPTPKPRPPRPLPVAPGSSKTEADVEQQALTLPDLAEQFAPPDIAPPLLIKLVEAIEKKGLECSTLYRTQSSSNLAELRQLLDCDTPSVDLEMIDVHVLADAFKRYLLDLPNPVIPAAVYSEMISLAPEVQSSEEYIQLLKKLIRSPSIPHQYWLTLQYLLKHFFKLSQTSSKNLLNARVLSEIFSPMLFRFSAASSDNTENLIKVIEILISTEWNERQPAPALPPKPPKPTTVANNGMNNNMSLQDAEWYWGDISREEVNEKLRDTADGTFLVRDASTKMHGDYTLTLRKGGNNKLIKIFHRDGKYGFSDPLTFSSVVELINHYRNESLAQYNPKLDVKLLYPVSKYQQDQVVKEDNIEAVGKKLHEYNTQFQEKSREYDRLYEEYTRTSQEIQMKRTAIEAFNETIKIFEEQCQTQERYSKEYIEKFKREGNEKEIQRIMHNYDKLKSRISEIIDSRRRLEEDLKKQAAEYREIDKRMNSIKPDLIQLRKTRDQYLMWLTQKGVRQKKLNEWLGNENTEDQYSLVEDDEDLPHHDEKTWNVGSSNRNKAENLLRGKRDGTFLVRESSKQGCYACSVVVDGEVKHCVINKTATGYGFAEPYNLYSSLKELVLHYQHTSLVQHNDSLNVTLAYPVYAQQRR
Class I PI3K isoforms were expressed and purified as heterodimeric recombinant proteins. All assay reagents and buffers for the TR-FRET assay were purchased from Millipore. PI3K isoforms were assayed under initial rate conditions in the presence of 25 mM Hepes (pH 7.4), and 2× Km ATP (75-500 μM), 2 μM PIP2, 5% glycerol, 5 mM MgCl2, 50 mM NaCl, 0.05% (v/v) Chaps, 1 mM dithiothreitol, 1% (v/v) DMSO at the following concentrations for each isoforms: PI3Kα, PI3Kβ, and PI3Kδ between 25 and 50 pM, and PI3Kγ at 2 nM. After an assay reaction time of 30 minutes at 25° C., reactions were terminated with a final concentration of 10 mM EDTA, 10 nM labeled-PIP3, and 35 nM Europium labeled GRP-1 detector protein before reading TR-FRET on an Envision plate reader (Ex: 340 nm; Em: 615/665 nm; […] delay and 500 μs read window).
Data were normalized based on positive ([…] wortmanin) and negative (DMSO) controls. α, β, δ, and γ IC50 values were calculated from the fit of the dose-response curves to a four-parameter equation. All IC50 values represent geometric mean values if more than one value was obtained. IC50 values were reported in units of nM.

A short description of data set [2]: Hepatocyte stability (parent drug disappearance in cryopreserved hepatocytes). Format: in vitro ADME, human. Conditions: human, cryopreserved human hepatocytes, 2 μM substrate, 37° C.; Table 2a. A digest of the protocol:
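Test article at 2 μM incubated in duplicate with 1 million hepatocytes/mL at 37 °C, 5% CO2, humidified. Parent loss tracked by LC/MS at 0, 1, 2 and 4 h, giving half-life (t1/2) in hours.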

In data set [3] the target is PI3Kδ (Homo sapiens (Human), UniProt O00329). Nature of the data set: Enzymatic activity of PI3K isoforms, TR-FRET assay (PI3Kδ). Format: biochemical. Conditions: 2× Km ATP, geometric mean if more than one value. A digest of the protocol: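 Recombinant heterodimeric PI3Kβ or PI3Kδ (25-50 pM) was run with 2 μM PIP2 and 2× Km ATP (75-500 μM) at pH 7.4, for 30 min at 25° C. PIP3 formation was detected by TR-FRET displacement of labeled PIP3 from Eu-GRP-1. IC50 values in nM come from four-parameter fits, as geometric means.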
PI3Kδ, sequence (O00329 whole entry, canonical isoform): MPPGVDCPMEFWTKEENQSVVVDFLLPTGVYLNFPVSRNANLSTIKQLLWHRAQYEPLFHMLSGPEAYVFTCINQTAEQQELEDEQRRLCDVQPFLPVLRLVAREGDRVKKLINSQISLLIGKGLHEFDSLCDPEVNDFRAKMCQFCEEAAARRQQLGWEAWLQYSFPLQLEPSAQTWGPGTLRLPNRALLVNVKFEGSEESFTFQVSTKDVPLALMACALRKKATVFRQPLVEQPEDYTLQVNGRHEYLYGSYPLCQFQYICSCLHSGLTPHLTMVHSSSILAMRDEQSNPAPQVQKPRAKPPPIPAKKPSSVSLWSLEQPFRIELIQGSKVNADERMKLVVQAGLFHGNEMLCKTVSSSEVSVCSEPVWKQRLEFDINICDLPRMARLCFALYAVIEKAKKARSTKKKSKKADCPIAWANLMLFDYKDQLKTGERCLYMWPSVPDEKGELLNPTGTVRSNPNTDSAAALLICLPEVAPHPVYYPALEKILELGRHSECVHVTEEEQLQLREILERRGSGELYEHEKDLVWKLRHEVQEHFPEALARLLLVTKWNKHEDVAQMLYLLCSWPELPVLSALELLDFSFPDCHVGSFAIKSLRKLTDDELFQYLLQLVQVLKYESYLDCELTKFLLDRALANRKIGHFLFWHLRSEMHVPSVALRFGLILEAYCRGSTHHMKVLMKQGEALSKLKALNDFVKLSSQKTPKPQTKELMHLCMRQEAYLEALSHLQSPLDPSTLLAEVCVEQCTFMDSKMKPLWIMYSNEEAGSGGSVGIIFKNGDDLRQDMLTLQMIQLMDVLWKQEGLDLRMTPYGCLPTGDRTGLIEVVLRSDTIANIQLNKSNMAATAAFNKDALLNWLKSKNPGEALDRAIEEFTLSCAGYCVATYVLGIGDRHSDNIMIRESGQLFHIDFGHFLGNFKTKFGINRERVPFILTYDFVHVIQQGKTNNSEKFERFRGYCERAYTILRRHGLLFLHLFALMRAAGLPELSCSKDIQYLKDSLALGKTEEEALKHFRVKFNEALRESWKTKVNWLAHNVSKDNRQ
PI3Kδ, sequence (P27986 whole entry partner, canonical isoform): as the sequence (P27986 whole entry partner, the tested form may be a part, canonical isoform) above
(Time-resolved FRET reads energy transfer from a long-lived donor to a nearby acceptor.)

The IC50 is the concentration needed to halve the response being measured. Higher therefore signals weaker potency in that assay. For orientation: half-life means the time in which the quantity being followed falls by half.

On to `Cc1cc(N)ncc1-n1c([C@H](C)Nc2nc(N)nc(N)c2C#N)nc2c(Cl)ccc(Cl)c2c1=O` (atropisomer, axis not shown) [Compound 96, (S)-2,4-diamino-6-((1-(3-(6-amino-4-methylpyridin-3-yl)-5,8-dichloro-4-oxo-3,4-dihydroquinazolin-2-yl)ethyl)amino)pyrimidine-5-carbonitrile], for which the IC50 in data set [1] was determined as 0.003 µM; in data set [3] it was 0.001 µM. In data set [2], the half-life at 2 μM was 4 h.
For `C[C@H](Nc1nc(N)nc(N)c1C#N)c1nc2c(Cl)cc(F)cc2c(=O)n1-c1ccc(N)nc1` [Compound 82, (S)-2,4-diamino-6-((1-(3-(6-aminopyridin-3-yl)-8-chloro-6-fluoro-4-oxo-3,4-dihydroquinazolin-2-yl)ethyl)amino)pyrimidine-5-carbonitrile], the IC50 in data set [1] and in data set [3] was 0.005 µM each time. Further, in data set [2], the half-life at 2 μM is greater than 10 h.
Consider `C[C@H](Nc1nc(N)nc(N)c1C#N)c1nc2c(Cl)ccc(Cl)c2c(=O)n1-c1ccc(N)nc1` [Compound 84, (S)-2,4-diamino-6-((1-(3-(6-aminopyridin-3-yl)-5,8-dichloro-4-oxo-3,4-dihydroquinazolin-2-yl)ethyl)amino)pyrimidine-5-carbonitrile], for which the IC50 in data set [1] was determined as 0.001 µM; in data set [3], 0.0005 µM. Moreover, the half-life at 2 μM in data set [2] was 10 h.
As for `C[C@H](Nc1nc(N)nc(N)c1C#N)c1nc2cccc(Cl)c2c(=O)n1-c1cncc(N)c1` [Compound 108, (S)-2,4-diamino-6-((1-(3-(5-aminopyridin-3-yl)-5-chloro-4-oxo-3,4-dihydroquinazolin-2-yl)ethyl)amino)pyrimidine-5-carbonitrile], the figures for the IC50 in data set [1] and in data set [3] were 0.033 µM and 0.0006 µM, respectively.
As for `C[C@H](Nc1nc(N)nc(N)c1Cl)c1nc2ccc(F)c(Cl)c2c(=O)n1-c1ccc(N)nc1` [Compound 100, (S)-3-(6-aminopyridin-3-yl)-5-chloro-2-(1-((2,6-diamino-5-chloropyrimidin-4-yl)amino)ethyl)-6-fluoroquinazolin-4(3H)-one], the IC50 in data set [1] was determined as 0.1 µM; in data set [3] it was 0.048 µM.
With `CCC[C@H](Nc1nc(N)nc(N)c1Cl)c1nc2cccc(Cl)c2c(=O)n1-c1ccc(N)nc1` [Compound 102, (S)-3-(6-aminopyridin-3-yl)-5-chloro-2-(1-((2,6-diamino-5-chloropyrimidin-4-yl)amino)butyl)quinazolin-4(3H)-one], the IC50 in data set [1] was found to be 0.062 µM; in data set [3] it was 0.015 µM.
As to `CC[C@H](Nc1nc(N)nc(N)c1C#N)c1nc2cccc(Cl)c2c(=O)n1-c1cnc(N)cc1C` (atropisomer, axis not shown) [Compound 91, (S)-2,4-diamino-6-((1-(3-(6-amino-4-methylpyridin-3-yl)-5-chloro-4-oxo-3,4-dihydroquinazolin-2-yl)propyl)amino)pyrimidine-5-carbonitrile], the IC50 in data set [1] is 0.099 µM; in data set [3], 0.004 µM.
In the case of `N#Cc1c(N)nc(N)nc1N[C@H](c1nc2cccc(Cl)c2c(=O)n1-c1ccc(N)nc1)C1CC1` [Compound 90, (S)-2,4-diamino-6-(((3-(6-aminopyridin-3-yl)-5-chloro-4-oxo-3,4-dihydroquinazolin-2-yl)(cyclopropyl)methyl)amino)pyrimidine-5-carbonitrile], the figures for the IC50 in data set [1] and in data set [3] were 0.002 µM and 0.0006 µM, respectively.
`C[C@H](Nc1ncnc(N)c1C#N)c1nc2cccc(Cl)c2c(=O)n1-c1cncc(N)c1` [Compound 109, (S)-4-amino-6-((1-(3-(5-aminopyridin-3-yl)-5-chloro-4-oxo-3,4-dihydroquinazolin-2-yl)ethyl)amino)pyrimidine-5-carbonitrile]: the IC50 in data set [1] amounted to 0.46 µM; in data set [3], 0.002 µM.
As for `C[C@H](Nc1nc(N)nc(N)c1Cl)c1nc2c(Cl)cc(F)cc2c(=O)n1-c1ccc(N)nc1` [Compound 81, (S)-3-(6-aminopyridin-3-yl)-8-chloro-2-(1-((2,6-diamino-5-chloropyrimidin-4-yl)amino)ethyl)-6-fluoroquinazolin-4(3H)-one], the IC50 in data set [1] is 0.18 µM; in data set [3] it was 0.084 µM.
For `N#Cc1c(N)nc(N)nc1N[C@H](c1nc2c(F)ccc(Cl)c2c(=O)n1-c1ccc(N)nc1)C1CC1` [Compound 107, (S)-2,4-diamino-6-(((3-(6-aminopyridin-3-yl)-5-chloro-8-fluoro-4-oxo-3,4-dihydroquinazolin-2-yl)(cyclopropyl)methyl)amino)pyrimidine-5-carbonitrile] the same measures were 0.003 µM and 0.001 µM.
Turning to `CCC[C@H](Nc1nc(N)nc(N)c1Cl)c1nc2ccc(F)c(Cl)c2c(=O)n1-c1ccc(N)nc1` [Compound 104, (S)-3-(6-aminopyridin-3-yl)-5-chloro-2-(1-((2,6-diamino-5-chloropyrimidin-4-yl)amino)butyl)-6-fluoroquinazolin-4(3H)-one], the IC50 amounted to 0.53 µM in data set [1] and 0.094 µM in data set [3].
For `Cc1cc(N)ncc1-n1c([C@@H](Nc2nc(N)nc(N)c2C#N)C2CC2)nc2c(Cl)ccc(Cl)c2c1=O` (atropisomer, axis not shown) [Compound 98, (S)-2,4-diamino-6-(((3-(6-amino-4-methylpyridin-3-yl)-5,8-dichloro-4-oxo-3,4-dihydroquinazolin-2-yl)(cyclopropyl)methyl)amino)pyrimidine-5-carbonitrile] the same measures were 0.16 µM and 0.021 µM.
With `Cc1cc(N)ncc1-n1c([C@H](C)Nc2nc(N)nc(N)c2C#N)nc2c(Cl)ccc(Cl)c2c1=O` (atropisomer, axis not shown) [Compound 95, (S)-2,4-diamino-6-((1-(3-(6-amino-4-methylpyridin-3-yl)-5,8-dichloro-4-oxo-3,4-dihydroquinazolin-2-yl)ethyl)amino)pyrimidine-5-carbonitrile], the IC50 in data set [1] came out at 0.028 µM; in data set [3], 0.004 µM.
Take `Cc1cc(N)ncc1-n1c([C@H](C)Nc2nc(N)nc(N)c2C#N)nc2cccc(Cl)c2c1=O` (atropisomer, axis not shown) [Compound 93, (S)-2,4-diamino-6-((1-(3-(6-amino-4-methylpyridin-3-yl)-5-chloro-4-oxo-3,4-dihydroquinazolin-2-yl)ethyl)amino)pyrimidine-5-carbonitrile]: the IC50 stood at 0.03 µM in data set [1] and 0.002 µM in data set [3].
In the case of `Cc1cc(N)ncc1-n1c([C@@H](Nc2nc(N)nc(N)c2C#N)C2CC2)nc2c(Cl)ccc(Cl)c2c1=O` (atropisomer, axis not shown) [Compound 99, (S)-2,4-diamino-6-(((3-(6-amino-4-methylpyridin-3-yl)-5,8-dichloro-4-oxo-3,4-dihydroquinazolin-2-yl)(cyclopropyl)methyl)amino)pyrimidine-5-carbonitrile], the figures for the IC50 in data set [1] and in data set [3] were 3.6 µM and 0.64 µM, respectively.
`CCC[C@H](Nc1nc(N)nc(N)c1C#N)c1nc2ccc(F)c(Cl)c2c(=O)n1-c1ccc(N)nc1` [Compound 105, (S)-2,4-diamino-6-((1-(3-(6-aminopyridin-3-yl)-5-chloro-6-fluoro-4-oxo-3,4-dihydroquinazolin-2-yl)butyl)amino)pyrimidine-5-carbonitrile]: the results for the IC50 in data set [1] and in data set [3] were 0.041 µM and 0.009 µM, respectively.
For the compound `Nc1ccc(-n2c([C@@H](Nc3nc(N)nc(N)c3Cl)C3CC3)nc3c(F)ccc(Cl)c3c2=O)cn1` [Compound 106, (S)-3-(6-aminopyridin-3-yl)-5-chloro-2-(cyclopropyl((2,6-diamino-5-chloropyrimidin-4-yl)amino)methyl)-8-fluoroquinazolin-4(3H)-one], the IC50 in data set [1] came to 0.18 µM; in data set [3], 0.031 µM.
Take `C[C@H](Nc1nc(N)nc(N)c1C#N)c1nc2ccc(F)c(Cl)c2c(=O)n1-c1ccc(N)nc1` [Compound 101, (S)-2,4-diamino-6-((1-(3-(6-aminopyridin-3-yl)-5-chloro-6-fluoro-4-oxo-3,4-dihydroquinazolin-2-yl)ethyl)amino)pyrimidine-5-carbonitrile]: the IC50 in data set [1] was 0.011 µM; in data set [3], 0.008 µM.
With `CCC[C@H](Nc1nc(N)nc(N)c1C#N)c1nc2cccc(Cl)c2c(=O)n1-c1ccc(N)nc1` [Compound 103, (S)-2,4-diamino-6-((1-(3-(6-aminopyridin-3-yl)-5-chloro-4-oxo-3,4-dihydroquinazolin-2-yl)butyl)amino)pyrimidine-5-carbonitrile], the IC50 in data set [1] was 0.003 µM; in data set [3], 0.001 µM.

(Values after patent US9221795B2, “Phosphatidylinositol 3-kinase inhibitors” (Gilead Sciences, Inc., priority 2013, dated 2015).)
